From patent US20210163308A1, “COMPOSITIONS AND METHODS FOR THE MODULATION OF CYTOKINES” (GALLEON LABS LLC, priority 2018, published 2021)

Experiments:
[1] = test system: primary human cells (HDFSAg, HDF3CGF, KF3CT, HDFLPS systems); assay: Study CSM003-01-b: biomarker readouts in primary human cell systems, compounds in PBS; conditions: for pattern of immune responses in HDFSAg: HDFSAg system
Procedure: The following compounds were screened in the assay system at the noted concentrations to test for anti-proliferative, inflammation-related, immunomodulatory, tissue remodeling and hemostasis-related activities at the noted concentrations (Table 4). All test compounds were dissolved in phosphate buffered saline (PBS).
(§2) The following primary human cells were used as test systems: HDFSAg (dermal fibroblasts), HDF3CGF (dermal fibroblasts); KF3CT (keratinocytes+dermal fibroblasts) and HDFLPS (dermal fibroblasts+peripheral blood mononuclear cells).

[2] = test system: primary human cells (3C, 4H, LPS, SAg, BT, BF4T, BE3C, CASM3C, HDF3CGF, KF3CT, MyoF, /Mphg systems); assay: Study CSM002-01-b: biomarker readouts in primary human cell systems, compounds in PBS; assay type: cell-based; conditions: for TF / TM: hemostasis-related activity
Procedure: Profiling was performed using the following processes: […]

[3] = test system: endothelial cells, T cells, B cells, coronary artery smooth muscle cells and fibroblasts; assay: Study CSM001-01-b: anti-proliferative activity; assay type: cell-based, human; conditions: DMSO
Procedure: (§1) All test compounds were dissolved in dimethyl sulfoxide (DMSO).

fibroblasts = assay: Study CSM003-01-b: anti-proliferative activity; assay type: cell-based, human; conditions: PBS, anhydrous
Procedure: All test compounds were dissolved in phosphate buffered saline (PBS).
as §2

[4] = test system: endothelial cells, T cells, coronary artery smooth muscle cells and fibroblasts; assay: Study CSM002-01-b: anti-proliferative activity; assay type: cell-based, human; conditions: PBS
[5] = test system: primary human cells (3C, 4H, LPS, SAg, BT, BF4T, BE3C, CASM3C, HDF3CGF, KF3CT, MyoF, /Mphg systems); assay: Study CSM001-01-b: biomarker readouts in primary human cell systems, compounds in DMSO; assay type: cell-based
Procedure: Profiling was performed using the following processes:
as §1

primary human cells = assay: Study CSM001-01-b: overt cytotoxicity (SRB, Alamar Blue); assay type: cell-based; conditions: DMSO, >50% reduction in cellular protein levels (SRB) and/or PBMC viability
Procedure: An annotated assay profile was prepared for each test agent. Biomarker readouts are annotated when two or more consecutive concentrations are changed in the same direction, relative to the vehicle control, outside of the significance envelope and with an effect size of at least 10% (more than 0.05 log ratio units). Biomarker activities are annotated as “modulated” when they are increased in some system(s) and decreased in other system(s). If applicable, a benchmark overlay was performed at the top non-cytotoxic concentration. Results of a similarity search (all test agents) and clustering (at least three test agents) were determined. […] A table of overtly cytotoxic test agents was also prepared which are test agents with a >50% reduction in cellular protein levels (sulforhodamine B, SRB) in one or more systems; and/or >50% reduction in PBMC viability. […]
Alamar Blue assays were used to determine the viability of non-adherent PBMCs in the assay systems, and are based on the conversion of resazurin to resorufin via the reduction reactions of metabolically active cells. […] Upon entering cells, resazurin is reduced to resorufin which produces very bright red fluorescence. Viable cells continuously convert resazurin to resorufin, thereby generating a quantitative measure of viability and cytotoxicity. The amount of fluorescence produced is proportional to the number of living cells. […]

SMILES: O.O.O.O.O.O.[Cl-].[Cl-].[Sr+2] [Strontium chloride hexahydrate]
- pattern of immune responses in HDFSAg [1]: enhanced immune responses
- sIL-6 ([1]; immunomodulatory activity): increased
- sIL-10 ([1]; immunomodulatory activity): increased
- sIL-17A ([1]; immunomodulatory activity): increased
- sIL-17F ([1]; immunomodulatory activity): increased

SMILES: O=[N+]([O-])[O-].O=[N+]([O-])[O-].[Sr+2] [Strontium nitrate, Strontium Nitrate]
- TF [2]: decreased
- TM [2]: increased
- CD40 ([2]; immunomodulatory activity): increased
- M-CSF ([2]; immunomodulatory activity): decreased
- ICAM-1 ([2]; inflammation-related activity): increased
- IL1α ([2]; inflammation-related activity): modulated
- IP-10 ([2]; inflammation-related activity): decreased
- MIP-1 ([2]; inflammation-related activity): decreased
- VCAM-1 ([2]; inflammation-related activity): increased
- sTNFα ([2]; inflammation-related activity): decreased
- Ker 8/18 ([2]; tissue remodeling activity): increased
- MMP-1 ([2]; tissue remodeling activity): increased
- MMP-9 ([2]; tissue remodeling activity): increased
- tPA ([2]; tissue remodeling activity): increased
- uPAR ([2]; tissue remodeling activity): increased
- proliferation of B cells [3]: anti-proliferative
- proliferation of T cells [3]: anti-proliferative
- proliferation of coronary artery smooth muscle cells [3]: anti-proliferative
- proliferation of endothelial cells [3]: anti-proliferative
- proliferation of fibroblasts [3]: anti-proliferative
- proliferation of fibroblasts (fibroblasts): anti-proliferative to fibroblasts at the top concentration only
- proliferation of coronary artery smooth muscle cells [4]: anti-proliferative
- pattern of immune responses in HDFSAg [1]: enhanced immune responses
- sIL-2 ([1]; immunomodulatory activity): increased
- sIL-6 ([1]; immunomodulatory activity): increased
- sIL-10 ([1]; immunomodulatory activity): increased
- MCP-1 ([1]; inflammation-related activity): decreased
- TF ([5]; hemostasis-related activity): increased
- TM ([5]; hemostasis-related activity): increased
- HLA-DR ([5]; immunomodulatory activity): decreased
- M-CSF ([5]; immunomodulatory activity): increased
- sIL-6 ([5]; immunomodulatory activity): decreased
- sIL-17A ([5]; immunomodulatory activity): decreased
- sIL-17F ([5]; immunomodulatory activity): decreased
- sIgG ([5]; immunomodulatory activity): decreased
- Eotaxin-3 ([5]; inflammation-related activity): decreased
- I-TAC ([5]; inflammation-related activity): decreased
- IL-1α ([5]; inflammation-related activity): decreased
- IL-8 ([5]; inflammation-related activity): decreased
- IP-10 ([5]; inflammation-related activity): decreased
- MCP-1 ([5]; inflammation-related activity): decreased
- SAA ([5]; inflammation-related activity): decreased
- VCAM-1 ([5]; inflammation-related activity): decreased
- sPGE2 ([5]; inflammation-related activity): increased
- sTNFα ([5]; inflammation-related activity): decreased
- Keratin 8/18 ([5]; tissue remodeling activity): increased
- MMP-1 ([5]; tissue remodeling activity): decreased
- MMP-3 ([5]; tissue remodeling activity): increased
- MMP-9 ([5]; tissue remodeling activity): decreased
- PAI-I ([5]; tissue remodeling activity): decreased
- TIMP-2 ([5]; tissue remodeling activity): increased
- uPAR ([5]; tissue remodeling activity): decreased

SMILES: CC(=O)N[C@@H](CS)C(=O)O [N-acetyl-L-cysteine]
- Esel ([2]; inflammation-related activity): decreased
- IL1α ([2]; inflammation-related activity): decreased
- IL-6 ([2]; inflammation-related activity): decreased
- IL-8 ([2]; inflammation-related activity): decreased
- IP-10 ([2]; inflammation-related activity): decreased
- ITAC ([2]; inflammation-related activity): decreased
- sTNFα ([2]; inflammation-related activity): decreased
- Col-I ([2]; tissue remodeling activity): increased
- EGFR ([2]; tissue remodeling activity): decreased
- MMP-3 ([2]; tissue remodeling activity): increased
- tPA ([2]; tissue remodeling activity): modulated
- αSMA ([2]; tissue remodeling activity): increased
- overt cytotoxicity (primary human cells): overtly toxic in multiple systems at the top two concentrations tested
- CD40 ([5]; immunomodulatory activity): decreased
- sIL-17A ([5]; immunomodulatory activity): decreased
- Eotaxin-3 ([5]; inflammation-related activity): decreased
- IL-6 ([5]; inflammation-related activity): increased
- IL-8 ([5]; inflammation-related activity): modulated
- IP-10 ([5]; inflammation-related activity): decreased
- MIG ([5]; inflammation-related activity): decreased
- sTNFα ([5]; inflammation-related activity): decreased
- Collagen-I ([5]; tissue remodeling activity): increased
- EGFR ([5]; tissue remodeling activity): decreased
- Keratin 8/18 ([5]; tissue remodeling activity): increased
- MMP-1 ([5]; tissue remodeling activity): increased
- MMP-3 ([5]; tissue remodeling activity): increased
- MMP-9 ([5]; tissue remodeling activity): modulated
- PAI-I ([5]; tissue remodeling activity): increased
- TIMP-I ([5]; tissue remodeling activity): increased
- tPA ([5]; tissue remodeling activity): increased
- uPAR ([5]; tissue remodeling activity): increased

SMILES: CC(O)CC(=O)O (stereo not drawn) [beta hydroxybutyric acid]
- TF [2]: increased
- TM [2]: increased
- CD40 ([2]; immunomodulatory activity): increased
- CD69 ([2]; immunomodulatory activity): increased
- M-CSF ([2]; immunomodulatory activity): increased
- sIL-6 ([2]; immunomodulatory activity): increased
- IL1α ([2]; inflammation-related activity): decreased
- IL-8 ([2]; inflammation-related activity): decreased
- MCP-1 ([2]; inflammation-related activity): increased
- sTNFα ([2]; inflammation-related activity): decreased
- Col-I ([2]; tissue remodeling activity): increased
- MMP-3 ([2]; tissue remodeling activity): increased
- MMP-9 ([2]; tissue remodeling activity): decreased
- αSMA ([2]; tissue remodeling activity): increased
- proliferation of T cells [3]: anti-proliferative
- proliferation of endothelial cells [3]: anti-proliferative
- proliferation of T cells [4]: anti-proliferative
- proliferation of coronary artery smooth muscle cells [4]: anti-proliferative
- proliferation of endothelial cells [4]: anti-proliferative
- overt cytotoxicity (primary human cells): overtly toxic in multiple systems at the top concentration tested
- M-CSF ([5]; immunomodulatory activity): increased
- sIgG ([5]; immunomodulatory activity): decreased
- ICAM-1 ([5]; inflammation-related activity): increased
- IL-1α ([5]; inflammation-related activity): increased
- IL-8 ([5]; inflammation-related activity): decreased
- MIG ([5]; inflammation-related activity): decreased
- VCAM-1 ([5]; inflammation-related activity): decreased
- Collagen-I ([5]; tissue remodeling activity): increased
- EGFR ([5]; tissue remodeling activity): increased
- MMP-9 ([5]; tissue remodeling activity): modulated
- PAI-I ([5]; tissue remodeling activity): modulated
- tPA ([5]; tissue remodeling activity): increased
- uPA ([5]; tissue remodeling activity): increased

SMILES: O=C(O)c1cc(O)c(O)c(O)c1 [gallic acid, 3,4,5-trihydroxy benzoic acid]
- M-CSF ([2]; immunomodulatory activity): modulated
- IL-8 ([2]; inflammation-related activity): increased
- IP-10 ([2]; inflammation-related activity): increased
- ITAC ([2]; inflammation-related activity): decreased
- VCAM-1 ([2]; inflammation-related activity): decreased
- sPGE2 ([2]; inflammation-related activity): increased
- sTNFα ([2]; inflammation-related activity): decreased
- MMP-9 ([2]; tissue remodeling activity): increased
- tPA ([2]; tissue remodeling activity): increased
- uPA ([2]; tissue remodeling activity): increased
- αSMA ([2]; tissue remodeling activity): increased
- proliferation of T cells [3]: antiproliferative
- proliferation of coronary artery smooth muscle cells [3]: antiproliferative
- proliferation of endothelial cells [3]: antiproliferative
- proliferation of fibroblasts [3]: antiproliferative
- proliferation of T cells [4]: anti-proliferative
- proliferation of coronary artery smooth muscle cells [4]: anti-proliferative
- proliferation of endothelial cells [4]: anti-proliferative
- proliferation of fibroblasts [4]: anti-proliferative
- M-CSF ([5]; immunomodulatory activity): decreased
- sIL-2 ([5]; immunomodulatory activity): decreased
- sIL-10 ([5]; immunomodulatory activity): increased
- sIL-17A ([5]; immunomodulatory activity): decreased
- Eotaxin-3 ([5]; inflammation-related activity): decreased
- I-TAC ([5]; inflammation-related activity): decreased
- ICAM-1 ([5]; inflammation-related activity): decreased
- IL-1α ([5]; inflammation-related activity): decreased
- IL-8 ([5]; inflammation-related activity): increased
- IP-10 ([5]; inflammation-related activity): decreased
- MIG ([5]; inflammation-related activity): decreased
- MIP-1 ([5]; inflammation-related activity): increased
- SAA ([5]; inflammation-related activity): decreased
- VCAM-1 ([5]; inflammation-related activity): modulated
- sTNFα ([5]; inflammation-related activity): decreased
- Collagen-III ([5]; tissue remodeling activity): increased
- Collagen-IV ([5]; tissue remodeling activity): increased
- EGFR ([5]; tissue remodeling activity): increased
- Keratin 8/18 ([5]; tissue remodeling activity): decreased
- MMP-1 ([5]; tissue remodeling activity): increased
- MMP-3 ([5]; tissue remodeling activity): increased
- MMP-9 ([5]; tissue remodeling activity): decreased
- PAI-I ([5]; tissue remodeling activity): modulated
- bFGF ([5]; tissue remodeling activity): decreased
- tPA ([5]; tissue remodeling activity): increased
- α-SMA ([5]; tissue remodeling activity): increased
